Measurements from patent US9770026B2, “Substituted pyrimidine compound and uses thereof” (Shenyang Sinochem Agrochemicals R&D Co., Ltd., priority 2012, dated 2017).

What was measured:
[1] = tested on: Green peach aphids (Myzus Persicae Sulzer); assay: bioactivity test against green peach aphid, airbrush foliar spray; type: in vivo; conditions: Myzus persicae, foliar, 48 h, contrastive test, read-out: Insecticidal activity against peach aphid (%); for pest or weed control at 10 µg/mL: 10 mg/L; for pest or weed control at 100 µg/mL: 100 mg/L; for pest or weed control at 600 µg/mL: 600 mg/L
In short: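 Aphids (15-30 per cabbage leaf disc) on moist filter paper were airbrush-sprayed at 10 psi, 0.5 mL, with compound from acetone:methanol (1:1) diluted in water with 0.1% tween 80. Held at 25±1 C, 60±5% RH; survivors counted after 48 hrs to give death rates.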

[2] = tested on: wheat powdery mildew; assay: protectant activity in vivo against wheat powdery mildew; conditions: Triticum aestivum, 168 h, protectant activity; for pest or weed control at 6.25 µg/mL: read-out: control effect against wheat powdery mildew (%), 6.25 mg/L; for pest or weed control at 25 µg/mL: read-out: control effect against wheat powdery mildew (%), 25 mg/L; for pest or weed control at 100 µg/mL: read-out: control effect against wheat powdery mildew (%), 100 mg/L; for pest or weed control at 400 µg/mL: read-out: control effect against wheat powdery mildew (%), 400 mg/L
[3] = tested on: carmine spider mite; assay: bioactivity test against carmine spider mite, airbrush spray; type: in vivo; conditions: Tetranychus cinnabarinus, 72 h, contrastive test, read-out: Insecticidal activity against carmine spider mite (% ); for pest or weed control at 100 µg/mL: 100 mg/L; for pest or weed control at 600 µg/mL: 600 mg/L
In short: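 Broadbean seedlings infested with adult mites were sprayed with compound (acetone/methanol stock diluted in 0.1% Tween 80 water) by airbrush at 0.7 kg/cm^2, 0.5 ml. Three replicates were run. Mortality was scored after 72 hrs.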

[4] = tested on: corn rust; assay: protectant activity in vivo against corn rust; conditions: Zea mays, 168 h, protectant activity; for pest or weed control at 6.25 µg/mL: read-out: control effect against corn rust (%), 6.25 mg/L; for pest or weed control at 25 µg/mL: read-out: control effect against corn rust (%), 25 mg/L; for pest or weed control at 100 µg/mL: read-out: control effect against corn rust (%), 100 mg/L; for pest or weed control at 400 µg/mL: read-out: control effect against corn rust (%), 400 mg/L
[5] = tested on: armyworm; assay: bioactivity test against armyworm, airbrush spray; type: in vivo; conditions: 72 h, read-out: Insecticidal activity against armyworm (%); for pest or weed control at 600 µg/mL: 600 mg/L
[6] = tested on: Diamond back moth; assay: insecticidal activity against diamond back moth, airbrush spray; type: in vivo; conditions: 72 h; for pest or weed control at 10 µg/mL: 10 mg/L; for pest or weed control at 100 µg/mL: 100 mg/L; for pest or weed control at 600 µg/mL: 600 mg/L
In short: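 Airbrush leaf-disc spray test: both faces of 2 cm cabbage discs received 0.5 ml of test solution at 0.7 kg/cm^2. Solutions were made in acetone:methanol (1:1) and brought to concentration with 0.1% Tween 80 in water. Ten second-instar larvae per disc, triplicates, were held at 25° C and 60˜70% R.H., with mortality recorded at 72 hrs.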

SMILES: FC(F)(F)c1ccc(Oc2ccc(CCNc3ncnc4ccccc34)cc2)nc1 [CK12, reference compound]
- pest or weed control at 10 µg/mL [1]: 73%
- pest or weed control at 100 µg/mL [1]: 100%
- pest or weed control at 600 µg/mL [1]: 100%
- pest or weed control at 6.25 µg/mL [2]: 0%
- pest or weed control at 25 µg/mL [2]: 0%
- pest or weed control at 100 µg/mL [2]: 30%
- pest or weed control at 400 µg/mL [2]: 80%
- pest or weed control at 100 µg/mL [3]: 41%
- pest or weed control at 600 µg/mL [3]: 100%
- pest or weed control at 6.25 µg/mL [4]: 75%
- pest or weed control at 25 µg/mL [4]: 85%
- pest or weed control at 100 µg/mL [4]: 100%
- pest or weed control at 400 µg/mL [4]: 100%
- pest or weed control at 10 µg/mL ([5]; 10 mg/L): 0%
- pest or weed control at 100 µg/mL ([5]; 100 mg/L): 20%
- pest or weed control at 600 µg/mL [5]: 86%
- pest or weed control at 10 µg/mL [6]: 0%
- pest or weed control at 100 µg/mL [6]: 35%
- pest or weed control at 600 µg/mL [6]: 100%

SMILES: Cc1ncnc(NC(C)c2ccc(Oc3ccc(C(F)(F)F)cc3Cl)cc2)c1Cl (stereo not drawn) [CK30, reference compound]
- pest or weed control at 10 µg/mL [1]: 0%
- pest or weed control at 100 µg/mL [1]: 50%
- pest or weed control at 600 µg/mL [1]: 93%
- pest or weed control at 6.25 µg/mL [2]: 0%
- pest or weed control at 25 µg/mL [2]: 20%
- pest or weed control at 100 µg/mL [2]: 80%
- pest or weed control at 400 µg/mL [2]: 100%
- pest or weed control at 10 µg/mL ([3]; 10 mg/L): 28%
- pest or weed control at 100 µg/mL [3]: 100%
- pest or weed control at 600 µg/mL [3]: 100%
- pest or weed control at 6.25 µg/mL [4]: 0%
- pest or weed control at 25 µg/mL [4]: 0%
- pest or weed control at 100 µg/mL [4]: 0%
- pest or weed control at 400 µg/mL [4]: 0%
- pest or weed control at 600 µg/mL [5]: 57%
- pest or weed control at 600 µg/mL [6]: 0%

SMILES: CCc1ncnc(NCc2ccc(Oc3nc(Cl)c(Cl)cc3Cl)cc2)c1Cl [CK36, reference compound]
- pest or weed control at 10 µg/mL [1]: 0%
- pest or weed control at 100 µg/mL [1]: 14%
- pest or weed control at 600 µg/mL [1]: 90%
- pest or weed control at 6.25 µg/mL [2]: 0%
- pest or weed control at 25 µg/mL [2]: 60%
- pest or weed control at 100 µg/mL [2]: 80%
- pest or weed control at 400 µg/mL [2]: 100%
- pest or weed control at 600 µg/mL [3]: 0%
- pest or weed control at 6.25 µg/mL [4]: 0%
- pest or weed control at 25 µg/mL [4]: 40%
- pest or weed control at 100 µg/mL [4]: 60%
- pest or weed control at 400 µg/mL [4]: 100%
- pest or weed control at 600 µg/mL [5]: 0%
- pest or weed control at 10 µg/mL [6]: 0%
- pest or weed control at 100 µg/mL [6]: 0%
- pest or weed control at 600 µg/mL [6]: 20%
